From US5770595A, “Oxime substituted therapeutic compounds” (Cell Therapeutics, Inc., priority 1994, dated 1998)

Key:
VCAM in HUVEC cells = assay: cell surface expression of VCAM in HUVEC; format: cell-based, human; settings: human TNF-α 20 ng/ml, 20 hours; FIG. 11
Method: Drug inhibitory activity can also be measured by determining levels of vascular cell adhesion molecule (VCAM) in stimulated cells. Early passage human umbilical vein endothelial cells (HUVEC) (obtained from commercial suppliers such as Cell Systems, Inc. or Clonetics) are cultured in media (e.g., Hepes buffered media, Cell Systems) containing 10% fetal bovine serum, and supplemented with a stimulating agent, such as fibroblast growth factor (acidic FGF, Cell Systems, Inc.) or TNF. The cells are plated into wells of a microtiter plate (e.g., 5×10^4 per well) and allowed to incubate at 37° C. for 72 hrs. The resting cells are removed (e.g., 20-30 min treatment with 0.4% EDTA), washed in media (e.g., phosphate buffered saline plus 0.1% bovine serum albumin with 0.01% sodium azide) and labeled on ice with a monoclonal antibody ("first antibody") recognizing human VCAM (e.g., 1 μg of a murine monoclonal antibody recognizing human VCAM, Genzyme). After 60 min on ice, the cells are washed (preferably twice) with cold wash media and incubated with an antibody that recognizes the first antibody (e.g., 1 μg of goat anti-mouse IgG conjugated with phycoerythrin, CalTag, Inc.). After 30 min on ice, the cells are washed twice and analyzed on a flow cytometer (Coulter Elite®) at appropriate emission and excitation wavelengths (e.g., for phycoerytlrin use excitation at 488 nm and emission at 525 nm).
The cells were stimulated with human TNF-α (20 ng/ml) for 20 hours and then stained for immunofluorescence using a monoclonal antibody recognizing VCAM, followed by a goat anti-mouse antibody conjugated to phycoerythrin. The cells were analyzed for antibody binding using flow cytometry. […] 1521 and 1522 at the indicated drug concentrations.
This example was used to investigate inhibition of vascular cell adhesion molecule (VCAM) expression on HUVEC by inventive compound no. 2525. VCAM expression by endothelial cells is an early event in atherogenesis and multiple sclerosis, among other various autoimmune diseases. FIG. 17, a plot of percent surface expression versus concentration of compound no.

murine thymocyte = assay: thymocyte proliferation stimulated by ConA and IL-1α; format: cell-based, murine (female Balb/C mice); settings: ConA 0.25 μg/ml, IL-1α 12.5 ng/ml; drug 2 h prior
Method: A thymocyte costimulator assay is conducted to evaluate the inventive compounds to inhibit activation and proliferation of thymocytes caused by stimulation with Con A and interleukin-1 (IL-1), or […]. Thymuses are obtained from mice (e.g., female Balb/C mice) and the thymuses are removed and dissociated into culture media (e.g., RPMI 1640 without serum supplementation). The dissociated thymus tissue and cell suspension is transferred to centrifuge tubes and allowed to settle, washed with HBSS and resuspended in serum-supplemented culture media (e.g., RPMI 1640 with 10% fetal calf serum). Any contaminating red cells are lysed, and viable cells are resuspended and counted. Thymocytes are plated (e.g., 96-well plates at a density of 2×10^5 cells/well) and a stimulating agent, such as Con A, IL-1 (e.g., IL-1α) or IL-2 is added to the well. The cells are incubated for 4 days at 37° C. On the fourth day, the cells are pulsed with tritiated thymidine and cell proliferation determined. […]
1521 on inhibition of murine thymocyte proliferation stimulated by Concanavalin A (ConA) and interleukin-I alpha (IL-1α). Thymuses were obtained from normal, female Balb/C mice. The thymuses were dissociated and plated into 96-well plates at a density of 2×10^5 cells/well. […] The cells were harvested and incorporated tritiated thymidine was determined in a liquid scintillation counter. […]

[1] = test system: PBMC (peripheral blood mononuclear cells); assay: two-way mixed lymphocyte reaction; format: cell-based, human; settings: FIG. 1; 6 days culture
From the text: Various in vitro assays can be used to measure effects of the inventive compounds to module immune activity and have antitumor activity using a variety of cellular types. For example, a mixed lymphocyte reaction (MLR) provides a valuable screening tool to determine biological activity of each inventive compound. In the MLR, PBMCs (peripheral blood mononuclear cells) are obtained by drawing whole blood from healthy volunteers in a heparinized container and diluted with an equal volume of hanks balanced salt solution (HBSS). This mixture is layered on a sucrose density gradient, such as a Ficoll-Hypaque® gradient (specific gravity 1.08), and centrifuged at 1000×g for 25 minutes at room temperature or cooler. PBMC are obtained from a band at a plasma-Ficoll interface, separated and washed at least twice in a saline solution, such as HBSS. Contaminating red cells are lysed, such as by ACK lysis for 10 min at 37° C., and the PBMCs are washed twice in HBSS. The pellet of purified PBMCs is resuspended in complete medium, such as RPMI 1640 plus 20% human inactivated serum. Proliferative response of PBMC to allogeneic stimulation is determined in a two-way MLR performed in a 96-well microtiter plate. Briefly, approximately 10^5 test purified PBMC cells in 200 μl complete medium are co-cultured with approximately 10^5 autologous (control culture) or allogeneic (stimulated culture) PBMC cells, wherein the allogeneic cells are from HLA disparate individuals. Varying doses of compounds (drug) are added at the time of addition of cells to the microtiter plate. The cultures are incubated for 6 days at 37° C. in a 5% CO2 atmosphere. At the conclusion of the incubation tritiated thymidine is added (for example, 1 μCi/well of 40 to 60 Ci/mmole) and proliferation determined by liquid scintillation. counting.
Example 10 illustrates a mixed lymphocyte reaction of inventive compounds nos. 1521 and 1522 (see above for chemical name and structure). […] Both compounds nos. […]

| SMILES | inhibition of cell surface expression of VCAM (VCAM in HUVEC cells) | inhibition of thymocyte proliferation, ConA + IL-1α (murine thymocyte) | proliferative response of PBMC to allogeneic stimulation (MLR) [1] |
| --- | --- | --- | --- |
| CON=C(C)CCCCn1c(=O)c2c(ncn2C)n(C)c1=O [Compound no. 1522] | inhibit cell surface expression of VCAM in HUVEC cells | inhibited thymocyte proliferation | showed activity in this immune modulating activity assay procedure |
| CC(CCCCn1c(=O)c2c(ncn2C)n(C)c1=O)=NO [Compound no. 1521] | inhibit cell surface expression of VCAM in HUVEC cells | inhibited thymocyte proliferation in a dose-response manner | showed activity in this immune modulating activity assay procedure |
